# Test results reported in US20230357232A1, “IMIDAZO[1,2-A]PYRIDINE COMPOUND AND PEST CONTROL AGENT” (Nippon Soda Co., Ltd., priority 2020, published 2023).
# What was measured:
# [1] = test system: Phyllotreta striolata; assay: Test of efficacy on Phyllotreta striolata (spray on Qing geng cai seedlings); assay type: in vivo; conditions: 168 h, 125 ppm sprayed to Qing geng cai seedlings, adults, after 7 days, 25° C., read-out: insecticidal rate
# Protocol: (§1) 5 parts of the imidazo[1,2-a]pyridine compound of the present invention, 93.6 parts of dimethylformamide, and 1.4 parts of polyoxyethylene alkyl aryl ether were mixed and dissolved to prepare emulsion (I) containing 5% of the active ingredient.
# (§2) An insecticidal rate was calculated according to the following expression: […]
# The emulsion (I) was diluted with water such that the concentration of the compound of the present invention was 125 ppm to prepare a test chemical. The test chemical was sprayed to Qing geng cai seedlings (at the seventh true leaf stage) planted in 10-cm pots. The Qing geng cai seedlings were dried in air and then placed in a plastic cup. Ten Phyllotreta striolata adults were released thereto. The plastic cup was stored in a thermostat chamber having a temperature of 25° C. and a humidity of 65%. Life and death were determined after 7 days from the release of the insects, and the insecticidal rate was calculated. The test was conducted in duplicate.
# [2] = test system: Plutella xylostella; assay: Test of efficacy on Plutella xylostella (cabbage leaf dip); assay type: in vivo; conditions: foliar, 72 h, cabbage leaves dipped 30 seconds, second instar larvae, after 3 days, 25° C., read-out: insecticidal rate
# Protocol: as §1, §2
# The emulsion (I) was diluted with water such that the concentration of the compound of the present invention was 125 ppm. Cabbage leaves were dipped in the dilution for 30 seconds. The resulting cabbage leaves were placed in a petri dish. Five second instar larvae of Plutella xylostella were released thereto. The petri dish was placed in a thermostat chamber having a temperature of 25° C. and a humidity of 60%. Life and death were determined after 3 days from the release of the insects, and the insecticidal rate was calculated. The test was conducted in duplicate.
melting point,Structure (SMILES),pest or weed control at 125 ppm [1],pest or weed control at 125 ppm [2]
–,CCS(=O)(=O)c1c(-c2ncc(C=C(F)C(F)(F)C(F)(F)F)n2C)nc2cc(C(F)(F)F)ccn12 [a-19],≥ 80%,≥ 80%
–,CCS(=O)(=O)c1c(-c2ncc(C=C(Cl)C(F)(F)F)n2C)nc2ccc(Cl)cn12 [a-23],≥ 80%,≥ 80%
236 to 238 °C,CCS(=O)(=O)c1c(-c2ncc(C=C(Cl)Cl)n2C)nc2ccc(C(F)(F)F)cn12 [a-15],–,–
233 to 235 °C,CCS(=O)(=O)c1c(-c2ncc(C=C(Br)Br)n2C)nc2ccc(C(F)(F)F)cn12 [a-14],–,–
–,CCS(=O)(=O)c1c(-c2ncc(C(F)C(F)(C(F)(F)F)C(F)(F)F)n2C)nc2ccc(C(F)(F)F)cn12 (centres unmarked) [a-4],–,≥ 80%
–,CCS(=O)(=O)c1c(-c2ncc(/C=C(\Cl)C(F)(F)F)n2C)nc2cc(C(F)(F)F)ccn12 [a-24],–,≥ 80%
–,CCS(=O)(=O)c1c(-c2ncc(C=C(Cl)C(F)(F)F)n2C)nc2cc(Cl)ccn12 [a-22],≥ 80%,≥ 80%
–,CCS(=O)(=O)c1c(-c2cn(/C=C(\F)C(F)(F)C(F)(F)F)cn2)nc2ccc(C(F)(F)F)cn12 [a-11],≥ 80%,≥ 80%
–,CCS(=O)(=O)c1c(-c2cn(CC(F)(F)C(F)(F)C(F)(F)F)cn2)nc2ccc(C(F)(F)F)cn12 [a-12],≥ 80%,≥ 80%
–,CCS(=O)(=O)c1c(-c2ncc(-c3ccc(C(F)(F)F)c(Cl)c3)n2C)nc2ccc(C(F)(F)F)cn12 [a-8],–,≥ 80%
–,CCS(=O)(=O)c1c(-c2ncc(-c3ccc(OC(F)(F)F)c(Cl)c3)n2C)nc2ccc(C(F)(F)F)cn12 [a-7],≥ 80%,≥ 80%
–,CCS(=O)(=O)c1c(-c2ncc(-c3ccc(C(F)(F)F)nc3)n2C)nc2ccc(C(F)(F)F)cn12 [a-2],≥ 80%,≥ 80%
–,CCS(=O)(=O)c1c(-c2ncc(/C=C(\F)C(F)(F)C(F)(F)F)n2C)nc2ccc(C(F)(F)F)cn12 [a-17],≥ 80%,≥ 80%
–,CCS(=O)(=O)c1c(-n2cc(-c3ccc(OC(F)(F)F)cc3)cn2)nc2ccc(C(F)(F)F)cn12 [a-9],–,≥ 80%
–,CCS(=O)(=O)c1c(-c2ncc(C=C(F)C(F)(F)C(F)(F)F)n2C)nc2ccc(C(F)(F)F)cn12 [a-20],≥ 80%,≥ 80%
–,CCS(=O)(=O)c1c(-c2ncc(/C=C/C(F)(F)C(F)(F)F)n2C)nc2ccc(C(F)(F)F)cn12 [a-13],≥ 80%,≥ 80%
–,CCS(=O)(=O)c1c(-c2cn(-c3ccc(OC(F)(F)F)cc3)cn2)nc2ccc(C(F)(F)F)cn12 [a-5],≥ 80%,≥ 80%
–,CCS(=O)(=O)c1c(-c2ncc(-c3ccc(OC(F)(F)C(F)F)cc3)n2C)nc2ccc(C(F)(F)F)cn12 [a-1],–,≥ 80%
–,CCS(=O)(=O)c1c(-c2ncc(C=C(Cl)C(F)(F)F)n2C)nc2cc(C3CC3)ccn12 [a-21],≥ 80%,≥ 80%
–,"CCS(=O)(=O)c1c(-c2ncc(-c3ccc(OC(F)(F)F)cc3)n2C)nc2ccc(C(F)(F)F)cn12 [a-3, 3-(ethylsulfonyl)-2-(1-methyl-5-(4-(trifluoromethoxy)phenyl)-1H-imidazol-2-yl)-6-(trifluoromethyl)imidazo[1,2-a]pyridine]",≥ 80%,≥ 80%
–,CCS(=O)(=O)c1c(-c2ncc(/C=C(/F)C(F)(F)C(F)(F)F)n2C)nc2ccc(C(F)(F)F)cn12 [a-16],≥ 80%,–
–,CCS(=O)(=O)c1c(-c2ncn(-c3ccc(OC(F)(F)F)cc3)n2)nc2ccc(C(F)(F)F)cn12 [a-6],≥ 80%,≥ 80%
–,CCS(=O)(=O)c1c(-c2ncc(-c3ccc(OC(F)(F)F)cc3)n2C)nc2cc(C(F)(F)F)ccn12 [a-10],≥ 80%,≥ 80%
